Consider five molecules from PMC8776094, “Reactive Oxygen Species Production Is Responsible for Antineoplastic Activity of Osmium, Ruthenium, Iridium and Rhodium Half-Sandwich Type Complexes with Bidentate Glycosyl Heterocyclic Ligands in Various Cancer Cell Models” (International Journal of Molecular Sciences, 2022).

What all share (assay type): cell-based
In assay [1] the test system is Capan2, a pancreatic adenocarcinoma cell line. Briefly: SRB assay, 48 h, cytostasis, Capan2. Conditions: for IC50 / Capan2 Max. Inh. (%): SRB assay; for Capan2 Max. Inh. (%): ND = not detected. An excerpt:
We turned next to assessing whether the cytostatic activity of Os-3, Os-4, Os-5, Os-6 and Ir-6 complexes is specific for ovarian cancer cell lines or if they may be active on other cell lines. To that end, we tested the complexes on another carcinoma cell line (Capan2, a pancreatic adenocarcinoma cell line), on a sarcoma cell line (Saos, an osteosarcoma cell line) and on a lymphoma cell line (L428, a Hodgkin’s lymphoma cell line).
Capan2 cells were maintained in MEM, 10% fetal bovine serum, 1% penicillin/streptomycin, and 2 mM glutamine.
(§1) The assay was performed similarly to the method used in [73]. Cells were seeded in 96-well plates the day before the assay. Cells were treated with the compounds for 48 h, with the exception of L428, where 96 h of treatment was applied. Cells were fixed with 10% trichloroacetic acid (TCA). Fixed cells were washed in distilled water 3 times, followed by staining with SRB (0.4 m/V% dissolved in 1% acetic acid) for 10 min. The stained cells were washed in 1% acetic acid 5 times; the acetic acid was removed, and the cells were left to dry. Protein-bound SRB was released by adding 100 µL 10 mM Tris base. Plates were measured in a plate photometer (Thermo Scientific Multiscan GO spectrophotometer, Waltham, MA, USA) at 540 nm. On each plate, wells were designed to contain untreated cells. In calculations, the readings for these wells were considered as 1 and all readings were expressed relative to these values.
Statistical analysis was performed using the 8.0.1 version of Graphpad Prism. Values were tested for normal distribution, using the d’Agostino and Pearson normality test. When necessary, values were log-normalized or were normalized using the Box-Cox normalization method or using a two-step transformation, as indicated in the figure captions. Nonlinear regression was performed using the built-in “[Inhibitor] vs. Response—Variable slope (four parameters), least-square fit” utility of Graphpad, yielding the IC50 and Hill slope values.
Here, 1.5 × 10^3 Capan2, 3 × 10^3 Saos cells and 10^4 L428 cells were plated onto 96-well plates. Capan2 and Saos cells were treated with the compounds in the concentrations indicated for 48 h for an SRB assay. L428 cells were treated with the compounds in the concentrations indicated for 96 h, then cells were counted using conventional microscopy and a Burker chamber. Data are represented as average ± SD, from three biological replicates; individual assays were performed in duplicate. Values were normalized for vehicle-treated cells; the absorbance for vehicle-treated cells is equal to 1. A one-way ANOVA, followed by a Kruskal–Wallis test, was performed individually for each compound. The results of the statistical analysis are presented in an Excel spreadsheet at https://figshare.com/s/28d14597d5041f08eb08 (accessed on 6 January 2022). Nonlinear regression was performed on the data.
(In general: Sulforhodamine B stains cellular protein and so reports cell mass.)

For assay [2], the system named is A2780 ovarian cancer cells. Briefly: MTT reduction assay, 4 h, rapid toxicity, A2780. The note with it: 4 h treatment; for Maximum Inhibition (%) A2780: MTT assay, tested 0.001694-33.3333 µM, ND = not detected or cannot be calculated. On the procedure: The compounds were tested between 0.001694 and 33.3333 µM, using a 4-hour-long MTT test to assess rapid toxicity and a 48-hour-long SRB assay to assess the long-term effects of the inhibition of proliferation (cytostasis). The MTT assay assesses the activity of mitochondrial complex I and detects rapid, direct toxicity, as well as indicating apoptosis and necrosis. The SRB assay measures the total protein content that is proportional to cell numbers; therefore, the assay can detect changes in cell numbers and can thus be used as a readout for cell proliferation. The SRB assay was performed after 48 h of treatment (with the exception of L428 cells, which were tested for 96 h due to their slower proliferation rate). In this setting, the SRB assay informs us of long-term changes to cell proliferation. We assessed the maximal inhibition within that concentration range, and descriptive statistics were performed. We performed a one-way ANOVA, followed by the Kruskal–Wallis test, regardless of the normal or non-normal distribution of the data. Due to the large number of significance values, the results of the significance calculations are provided in an Excel spreadsheet at https://figshare.com/s/28d14597d5041f08eb08 (accessed on 6 January 2022), among other primary data of the study. Where possible, nonlinear regression was performed on the curves to determine the IC50 values ((inhibitor) vs. response—variable slope (four parameters) method with Graphpad v8.0.1). […] In Table 5, we added the IC50 values that we determined for a set of 4 active ruthenium half-sandwich complexes we identified previously, to be used in subsequent structure-activity relationship (SAR) analyses.
A2780 cells were cultured in RMPI 1640 medium, supplemented with 10% fetal calf serum, 2 mM glutamine, and 1% penicillin-streptomycin.
The MTT reduction assay measures the activity of mitochondrial complex I and can be used to detect apoptosis and necrosis. The assay was performed similarly to the method used in [72]. Briefly, cells were plated in 96-well plates the day before the assay. Cells were treated with the compounds for 4 h, then MTT was added at 0.5 mg/mL final concentration and the cells were incubated at 37 °C in a cell incubator. The culture media were removed and the reduced MTT dye was dissolved in dimethyl-sulfoxide (DMSO) and plates were measured in a plate photometer (Thermo Scientific Multiscan GO spectrophotometer, Waltham, MA, USA) at 540 nm. On each plate, wells were designed to contain untreated/vehicle-treated cells. In the calculations, the readings for these wells were considered as 1 and all readings were expressed relative to these values.

Assay [3] relates to A2780 cells. Briefly: SRB assay with or without 1 mM vitamin E co-treatment. The note with it: 48 h SRB. Here is the method: To assess the causative role of oxidative stress in cytostasis induced by the compounds we identified in this study, we co-treated cells with the compounds and with vitamin E, a lipophilic antioxidant.
as §1
Figure 10 Assessment of selected Os(II) and Ir(III) complexes (Os-3‒Os-6, Ir-6) for cytostatic activity. Here, 1.5 × 10^3 A2780 cells were plated onto 96-well plates. Cells were treated with the compounds in the concentrations indicated for 48 h for an SRB assay with or without 1 mM vitamin E. Data are represented as average ± SD, from three biological replicates; individual assays were performed in duplicate. Values were normalized for vehicle-treated cells. Absorbance for vehicle-treated cells is equal to 1. Normality was assessed using the d’Agostino and Pearson test. Os-3, Os-4, Os-6, Ir-6 data had normal distribution, while in Os-5, normality was achieved using the Box-Cox normalization method. Statistical difference was assessed using a two-way ANOVA test; all measurement points were compared with each other. *, ** and *** indicate statistically significant differences between vehicle-treated (control) cells and those treated with a compound but not with vitamin E, at p < 0.05 and p < 0.001, respectively. #, ##, and ### indicate statistically significant differences between vehicle-treated (no Vitamin E) and the cells treated with a Vitamin E at p < 0.05, p < 0.01 and p < 0.001, respectively. !, !!, and !!! indicate statistically significant differences between vitamin E and vehicle-treated cells (control) and the cells treated with vitamin E and a compound at p < 0.05, p < 0.01 and p < 0.001, respectively.

For the molecule `Cc1ccc(C(C)C)cc1.F[P-](F)(F)(F)(F)F.O=C(OCC1OC(c2nnc(-c3ccccn3)o2)C(OC(=O)c2ccccc2)C(OC(=O)c2ccccc2)C1OC(=O)c1ccccc1)c1ccccc1.[Cl][Os+]` (mixture of isomers) [Os-3], in assay [1], the “cytostatic activity on Capan2 cells (in words)” value (“cytostatic activity” for short) is recorded as “active on all cell lines”, half-maximal inhibition (IC50) required 8.8 µM and the “Capan2 Max. Inh. (%)” value worked out at 100%. For the same molecule, the “Maximum Inhibition (%) A2780” value in assay [2] is 37.42%. The “effect of vitamin E on the cytostatic properties of the complex” value (from here on “effect of vitamin E”) in assay [3] is on record as “potently inhibited by vitamin E”.

For the molecule `Cc1ccc(C(C)C)cc1.F[P-](F)(F)(F)(F)F.O=C(OCC1OC(n2cc(-c3ccccn3)nn2)C(OC(=O)c2ccccc2)C(OC(=O)c2ccccc2)C1OC(=O)c1ccccc1)c1ccccc1.[Cl][Os+]` (mixture of isomers) [Os-6], in assay [1], the “cytostatic activity” value is on record as “active on all cell lines”; the IC50 (in general, the midpoint of a concentration-inhibition curve) came to 1.71 µM; the “Capan2 Max. Inh. (%)” value is recorded as 100%. In assay [2], the “Maximum Inhibition (%) A2780” value was 21.38%. Also, the “effect of vitamin E” value in assay [3] is reported as “potently inhibited by vitamin E”.

With `Cc1c(C)c(C)[c-](C)c1C.F[P-](F)(F)(F)(F)F.O=C(OCC1OC(n2cc(-c3ccccn3)nn2)C(OC(=O)c2ccccc2)C(OC(=O)c2ccccc2)C1OC(=O)c1ccccc1)c1ccccc1.[Cl][Ir+2]` (mixture of isomers) [Ir-6], in assay [1], the “cytostatic activity” value is recorded as “active on all cell lines”, the IC50 is 4.15 µM and the “Capan2 Max. Inh. (%)” value stood at 100%. Further, in assay [2], the “toxicity on A2780 cells in short-term MTT assay (in words)” value is listed as “exerted toxicity in higher concentrations” and the “Maximum Inhibition (%) A2780” value was 43.07%. Further, in assay [3], the “effect of vitamin E” value is “potently inhibited by vitamin E”.

`Cc1ccc(C(C)C)cc1.F[P-](F)(F)(F)(F)F.O=C(OCC1OC(c2nnc(-c3ccccn3)o2)C(OC(=O)c2ccccc2)C(OC(=O)c2ccccc2)C1OC(=O)c1ccccc1)c1ccccc1.[Cl][Os+]` (mixture of isomers) [Os-4]: in assay [1], the “cytostatic activity” value is reported as “active on all cell lines”, the 50% inhibitory concentration (IC50) was determined as 6.2 µM and the “Capan2 Max. Inh. (%)” value is listed as 100%. Further, the “Maximum Inhibition (%) A2780” value in assay [2] is recorded as 26.67%. The “effect of vitamin E” value in assay [3] is given as “potently inhibited by vitamin E”.

Consider `Cc1ccc(C(C)C)cc1.F[P-](F)(F)(F)(F)F.O=C(OC1COC(c2nnc(-c3ccccn3)o2)C(OC(=O)c2ccccc2)C1OC(=O)c1ccccc1)c1ccccc1.[Cl][Os+]` (mixture of isomers) [Os-5], for which, in assay [1], the “cytostatic activity” value is “active on all cell lines”, 8.89 µM corresponded to half-maximal inhibition (IC50) and the “Capan2 Max. Inh. (%)” value was 100%. In assay [2], the “Maximum Inhibition (%) A2780” value was 31.38%. Also, the “effect of vitamin E” value in assay [3] is listed as “potently inhibited by vitamin E”.
